Results taken from patent US8906897B2, “Antimicrobial agents based on hemin derivatives” (Obschestvo S Ogranichennoi Otvetstvennostiyu …, priority 2009, dated 2014).
Entries after “also recorded” stand apart in the source; their conditions may differ.

How the values were obtained:
[1] = tested on: Enterococcus faecium No. 569; assay: Specific activity against resistant bacterial strains; format: cell-based; details: Ent. faecium 569; 24 h, 36° C.
[2] = tested on: Cryptococcus neoformans No. 3465; assay: Antifungal activity, culture growth with pH indicator; format: cell-based; set-up: key: (−) No growth; the indicator is blue; (±) Weak growth; the indicator is yellow, but the precipitate of grown cells looks as a diffuse spot; (+) Strong growth; the indicator is yellow, and the cell precipitate looks as a compact spot
Experimental: The subjects of action were Cryptococcus neoformans No. 3465 museum strain cells and Candida albicans No. 927 museum strain cells grown for one day on a glucose-peptone-yeast medium at 32° C. The reference compounds were the following antimycotics: pimafucin, amphotericin, and fluconazole.
Experiments were carried out on round-bottomed 96-well plates (Lenmedpolimer) in two replicas. To the first column (0), added was 10 μL of the stock solution of a water-soluble agent with concentrations of 10^−2 to 10^−3 mol/L; to the second column, added was also the same 10 μL plus 10 μL of the solvent corresponding to the given compound, suspended, 10 μL was transferred to the next well, and so on to the 8th well of the row. Stock solutions of water-insoluble compounds of general formula (I) (compounds V, VIII, XII, XIII, XIV, and hemin) were prepared in DMSO and were diluted with DMSO and the medium. DMSO concentrations in the reaction mixture in a well were ≦5%.
Then, to every well added was 190 μL of a Cr. neoformans cell culture suspension in a synthetic nutritional medium (so that the final cell concentration was approximately 10^3 CFU/mL), this medium containing Bromocresol Blue as a pH-indicator (pH: 5.5; indicator color: blue). As pH reduced to 4.5, the indicator in the culture changed its color to yellow, thereby indicating fungal cell growth. The synthetic medium comprised the following components: salts, amino acids, microelements, vitamins, an antibiotic, and glucose (30 components altogether) [Yarrow, D., “Methods for the Isolation, Maintenance and Identification of Yeasts,” in: The Yeasts. A Taxonomic Study, Ed. by Kurtsman, C. P, and Fell, M., Elsevier, 1998, pp. 77-100]. After being inoculated with a Cr. neoformans cell suspension, the plate was incubated at 32° C. for 1 h with stirring, then transferred to a stationary thermostat and incubated for two and five days at 27° C. After being inoculated with a C. albicans cell suspension, the plates were incubated for 1 h at 32° C. with stirring, then transferred to a stationary thermostat and incubated for one and four days at 27° C.

Candida albicans No. 927 = assay: as above; format: cell-based; set-up: key to Test culture growth at various dilutions of the agent: (−) No growth; the indicator is blue; (±) Weak growth; the indicator is yellow, but the precipitate of grown cells looks as a diffuse spot; (+) Strong growth; the indicator is yellow, and the cell precipitate looks as a compact spot
How it was run: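 Museum strains grown one day on glucose-peptone-yeast medium at 32° C; compounds two-fold serially diluted (DMSO ≤5% for insoluble ones) in synthetic medium with Bromocresol Blue, ~10^3 CFU/mL. Growth read as blue-to-yellow shift (pH 5.5→4.5) after 1 h at 32° C with stirring, then 27° C: C. neoformans 2 and 5 days, C. albicans 1 and 4 days.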

[3] = Solubility of tested agents (water / DMSO); details: water or DMSO
human leukocytes = assay: Cytotoxic activity against human leukocytes; details: for toxic effect on human blood leukocytes (in words): concentrations of up to 1 mM, 3 h
Experimental: Total leukocytes were isolated from human blood by unforced sedimentation using freshly collected venous blood from a healthy donor.
Blood (10 mL) added with 10 units/mL heparin was exposed for 2.5 h in the dark at a temperature of 15 to 18° C. A light-colored liquid supernatant (4 mL) was collected over the layer of sedimenting erythrocytes, washed three times with balanced Hanks's salt solution, and resuspended in the RPMI-1640 medium (added with 8% fetal bovine serum, 2 mM L-glutamine, and 10 mM HEPES; hereinafter, the complete medium).
The concentrations of leukocytes and erythrocytes in the suspension were determined by counts in Goryachev's chamber, after which the suspension was adjusted to a leukocyte concentration of (1.0±0.1)×10^6 cells/mL with the complete medium.
To determine the cytotoxicity of the tested compounds for human leukocytes, the cell suspension was transferred to wells of sterile 96-well plates, tested compounds were added with serial twofold dilutions (the range of tested concentrations was from 3.2 to 100 μM for GrD and gramicidin S; from 8 to 500 μM for compound XIII; and from 8 to 1000 μM for compounds V, VI, VII, VIII, IX, X, XI, XIV, XV, XIX, and Hem), and the mixture was carefully stirred. The experiment was performed in two replicas.
As controls served cells added with an equivalent amount of the solvent in which tested compounds were prepared, namely: water for compounds VII and X; an aqueous solution of DMSO for compounds V, VI, VIII, and IX; and DMSO for GrD, gramicidin S, Hem, XI, XIII, XIV, XV, and XIX. An additional control was an additive-free leukocyte suspension.
Cells were incubated with tested compounds for 3 h (37° C., 5% CO2, 100% humidity). Leukocyte death values were quantified using fluorescence microscopy. Staining with propidium iodide (it permeates only into dead cells nuclei) and Hoechst 33342 (it stains all nuclei) was used to recognize dead and living cells. Cells were incubated for 15 min in plates with propidium iodide and Hoechst 33342 (37° C., 5% CO2), and then the plates were placed under a microscope for analysis.
The dead cell fraction was derived from the fluorescence images of cells obtained in the blue (Hoechst 33342) and red (propidium iodide) spectral ranges using an Axio Observer (Zeiss, Germany) fluorescence microscope equipped with a 10× objective lens (Plan-Neofluar 10×/0.3). The following sets of fluorescence filters were used. For propidium iodide: a 530/585-nm bandpass excitation filter, a 600-nm cut-off dichroic minor, and a 615-nm longpass barrier filter for analysis. For Hoechst 33342: a 359/372-nm bandpass excitation filter, a 395-nm cut-off dichroic mirror, and a 397-nm longpass barrier filter for analysis.
A digital camera recorded three types of cell images: (a) an image in the transmitted white light; (b) a blue fluorescence image obtained with UV excitation, and (c) a red fluorescence image obtained with green light excitation. At least four fields of view were photographed per well in various regions of a well.

[4] = dilution : 16 of 5.00 × 10^−5 M
[5] = dilution : 32 of 5.00 × 10^−5 M
[6] = dilution : 64 of 5.00 × 10^−5 M
[7] = dilution : 128 of 5.00 × 10^−5 M

Structure (SMILES)	MICs for hemin derivatives against Gr+ strains [1]	Test culture growth at various dilutions of the agent on day 2 ([2]; dilution 0: 5.00 × 10^−5 M)	Test culture growth at various dilutions of the agent on day 2 ([2]; dilution : 2 of 5.00 × 10^−5 M)	Test culture growth at various dilutions of the agent on day 2 ([2]; dilution : 4 of 5.00 × 10^−5 M)	Test culture growth at various dilutions of the agent on day 2 ([2]; dilution : 8 of 5.00 × 10^−5 M)	Test culture growth at various dilutions of the agent on day 2 [2, 4]	Test culture growth at various dilutions of the agent on day 2 [2, 5]	Test culture growth at various dilutions of the agent on day 2 [2, 6]	Test culture growth at various dilutions of the agent on day 2 [2, 7]	Test culture growth at various dilutions of the agent (Candida albicans No. 927; dilution 0: 1 × 10^−4 M)	Test culture growth at various dilutions of the agent (Candida albicans No. 927; dilution : 2 of 1 × 10^−4 M)	Test culture growth at various dilutions of the agent (Candida albicans No. 927; dilution : 4 of 1 × 10^−4 M)	Test culture growth at various dilutions of the agent (Candida albicans No. 927; dilution : 8 of 1 × 10^−4 M)	Test culture growth at various dilutions of the agent (Candida albicans No. 927; dilution : 16 of 1 × 10^−4 M)	Test culture growth at various dilutions of the agent (Candida albicans No. 927; dilution : 32 of 1 × 10^−4 M)	Test culture growth at various dilutions of the agent (Candida albicans No. 927; dilution : 64 of 1 × 10^−4 M)	solubility (in words) [3]	Death of leukocytes in the presence of 1 mM of compound (human leukocytes; 3 h incubation)	toxic effect on human blood leukocytes (in words) (human leukocytes)	other results
C=CC1=C(C)c2cc3[n-]c(cc4nc(cc5[n-]c(cc1n2)c(C)c5CCC(=O)N[C@@H](CCC(=O)N[C@@H](CCCNC(=N)N)C(=O)OC)C(=O)N[C@@H](CCCNC(=N)N)C(=O)OC)C(CCC(=O)N[C@@H](CCC(=O)N[C@@H](CCCNC(=N)N)C(=O)OC)C(=O)N[C@@H](CCCNC(=N)N)C(=O)OC)=C4C)c(C)c3C=C.[Cl-].[Fe+3] [Compound XVIII, 6,7-bis[bis(N^α-L-Arginyl Methyl Ester)-L-Glutamyl]-Protohemin IX]	6.25e-06 M	−	−	−	−	+	+	+	+	−	−	−	±	±	±	±	water-soluble			concentration with practically fungicidal effect (Candida albicans No. 927; control inoculations from wells on day 1 to 4 post-exposure): about 5×10^−5 M
C=CC1=C(C)c2cc3[n-]c(cc4nc(cc5[n-]c(cc1n2)c(C)c5CCC(=O)N[C@@H](CCCNC(=N)N)C(=O)OC)C(CCC(=O)N[C@@H](CCCNC(=N)N)C(=O)OC)=C4C)c(C)c3C=C.[Cl-].[Fe+3] [VII]	>5e-05 M	−	±	+	+	+	+	+	+	±	+	+	+	+	+	+	water-soluble	8.0 ± 0.8%	did not cause the death	
C=CC1=C(C)c2cc3[n-]c(cc4[n-]c(cc5nc(cc1n2)C(C)=C5C=C)c(C)c4CCC(=O)O)c(CCC(=O)O)c3C.[Cl-].[Fe+3] [Hem, hemin]	>1e-05 M	±	±	±	±	±	±	+	+	±	+	+	+	+	+	+	water-insoluble	40 ± 2%		Death of leukocytes in the presence of 1 mM of compound (human leukocytes; 3 h incubation, listed as hemin): 40%
C=CC1=C(C)c2cc3[n-]c(cc4nc(cc5[n-]c(cc1n2)c(C)c5CCC(=O)NCCO)C(CCC(=O)NCCO)=C4C)c(C)c3C=C.[Cl-].[Fe+3] [Compound XIV, Protohemin IX 6,7-bis-N-(2-Hydroxyethyl)amide]	>5e-05 M									±	+	+	+	+	+	+	DMSO-soluble; also recorded: water-insoluble	17.5 ± 0.7%		concentration at which a weak toxic effect on leukocytes appears (human leukocytes; 3 h incubation): ~1000 µM
C=CC1=C(C)c2cc3[n-]c(cc4nc(cc5[n-]c(cc1n2)c(C)c5CCC(=O)N[C@@H](CO)C(=O)OC)C(CCC(=O)N[C@@H](CO)C(=O)OC)=C4C)c(C)c3C=C.[Cl-].[Fe+3] [VIII]	>5.0. ×10^−5 M	±	±	±	+	+	+	+	+	±	±	±	+	+	+	+	DMSO-soluble; also recorded: water-insoluble	6.1 ± 0.3%	did not cause the death	
